In PubChem BioAssay (NCI):
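In this assay, cells in 96-well plates receive the compound at five concentrations for 48 hours. Endpoints are linearly interpolated between the surrounding concentrations. TGI: total growth inhibition.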

Key:
Assay in all cases: growth of human tumour cells (NCI), 48 h
EKVX NSCLC = tested on: EKVX NSCLC
SK-OV-3 ovarian = tested on: SK-OV-3 ovarian
LOX IMVI melanoma = tested on: LOX IMVI melanoma
HCT-116 colon = tested on: HCT-116 colon
NCI-H522 lung = tested on: NCI-H522 lung
M14 melanoma = tested on: M14 melanoma
T-47D breast = tested on: T-47D breast
TK-10 renal = tested on: TK-10 renal
A549 NSCLC = tested on: A549 NSCLC
MDA-N = tested on: MDA-N
CAKI-1 renal = tested on: CAKI-1 renal
OVCAR-4 ovarian = tested on: OVCAR-4 ovarian
HCC-2998 colon = tested on: HCC-2998 colon
RXF 393 renal = tested on: RXF 393 renal
UACC-62 melanoma = tested on: UACC-62 melanoma
MALME-3M melanoma = tested on: MALME-3M melanoma
HT29 colon = tested on: HT29 colon
SR leukemia = tested on: SR leukemia
SF-268 CNS = tested on: SF-268 CNS
HCT-15 colon = tested on: HCT-15 colon
OVCAR-5 ovarian = tested on: OVCAR-5 ovarian
COLO 205 colon = tested on: COLO 205 colon
OVCAR-3 ovarian = tested on: OVCAR-3 ovarian
SNB-19 CNS = tested on: SNB-19 CNS
BT-549 breast = tested on: BT-549 breast
ACHN renal = tested on: ACHN renal
RPMI-8226 leukemia = tested on: RPMI-8226 leukemia
UACC-257 melanoma = tested on: UACC-257 melanoma
PC-3 prostate = tested on: PC-3 prostate
NCI-H226 lung = tested on: NCI-H226 lung
HL-60(TB) leukemia = tested on: HL-60(TB) leukemia
SF-539 CNS = tested on: SF-539 CNS
NCI/ADR-RES ovarian = tested on: NCI/ADR-RES ovarian
SK-MEL-2 melanoma = tested on: SK-MEL-2 melanoma
U251 CNS = tested on: U251 CNS
MDA-MB-435 = tested on: MDA-MB-435
786-0 renal = tested on: 786-0 renal
NCI-H23 lung = tested on: NCI-H23 lung
KM12 colon = tested on: KM12 colon
UO-31 renal = tested on: UO-31 renal
SF-295 CNS = tested on: SF-295 CNS
SW-620 colon = tested on: SW-620 colon
HS 578T breast = tested on: HS 578T breast
OVCAR-8 ovarian = tested on: OVCAR-8 ovarian
K-562 leukemia = tested on: K-562 leukemia
MCF7 breast = tested on: MCF7 breast
NCI-H460 lung = tested on: NCI-H460 lung
HOP-92 NSCLC = tested on: HOP-92 NSCLC
MOLT-4 leukemia = tested on: MOLT-4 leukemia
SN12C renal = tested on: SN12C renal
CCRF-CEM leukemia = tested on: CCRF-CEM leukemia
DU-145 prostate = tested on: DU-145 prostate
IGROV1 ovarian = tested on: IGROV1 ovarian
SK-MEL-5 melanoma = tested on: SK-MEL-5 melanoma
HOP-62 NSCLC = tested on: HOP-62 NSCLC
SK-MEL-28 melanoma = tested on: SK-MEL-28 melanoma
A498 renal = tested on: A498 renal
SNB-75 CNS = tested on: SNB-75 CNS

## N#Cc1c(-c2cccc(Br)c2)cc(-c2ccc(Cl)cc2)nc1N
EKVX NSCLC
  TGI: 56.7 µM
SK-OV-3 ovarian
  TGI: 56.6 µM
LOX IMVI melanoma
  TGI: 30.5 µM
HCT-116 colon
  TGI: 34.8 µM
NCI-H522 lung
  TGI: 30.4 µM
M14 melanoma
  TGI: 41.1 µM
T-47D breast
  TGI: > 100 µM
TK-10 renal
  TGI: 45.2 µM
A549 NSCLC
  TGI: 57 µM
MDA-N
  TGI: 46.7 µM
CAKI-1 renal
  TGI: 79.1 µM
OVCAR-4 ovarian
  TGI: 13.5 µM
HCC-2998 colon
  TGI: 34 µM
RXF 393 renal
  TGI: 34.6 µM
UACC-62 melanoma
  TGI: 29.2 µM
MALME-3M melanoma
  TGI: 70.9 µM
HT29 colon
  TGI: 39.2 µM
SR leukemia
  TGI: 46.3 µM
SF-268 CNS
  TGI: 73.6 µM
HCT-15 colon
  TGI: 30 µM
OVCAR-5 ovarian
  TGI: 65.2 µM
COLO 205 colon
  TGI: 27.2 µM
OVCAR-3 ovarian
  TGI: 77.3 µM
SNB-19 CNS
  TGI: 40.1 µM
BT-549 breast
  TGI: 99.3 µM
ACHN renal
  TGI: 51.8 µM
RPMI-8226 leukemia
  TGI: 45.7 µM
UACC-257 melanoma
  TGI: 38.2 µM
PC-3 prostate
  TGI: 71.3 µM
NCI-H226 lung
  TGI: 38.1 µM
HL-60(TB) leukemia
  TGI: 69 µM
SF-539 CNS
  TGI: 39.5 µM
NCI/ADR-RES ovarian
  TGI: 55.6 µM
SK-MEL-2 melanoma
  TGI: 31.5 µM
U251 CNS
  TGI: 32.8 µM
MDA-MB-435
  TGI: 38.2 µM
786-0 renal
  TGI: 42.4 µM
NCI-H23 lung
  TGI: 71.7 µM
KM12 colon
  TGI: 60.4 µM
UO-31 renal
  TGI: 48.7 µM
SF-295 CNS
  TGI: 35.5 µM
SW-620 colon
  TGI: 36 µM
HS 578T breast
  TGI: 43.1 µM
OVCAR-8 ovarian
  TGI: > 100 µM
K-562 leukemia
  TGI: 81.9 µM
MCF7 breast
  TGI: > 100 µM
NCI-H460 lung
  TGI: 50.8 µM
HOP-92 NSCLC
  TGI: 32.4 µM
MOLT-4 leukemia
  TGI: 50.1 µM
SN12C renal
  TGI: 35.9 µM
CCRF-CEM leukemia
  TGI: 87.5 µM
DU-145 prostate
  TGI: > 100 µM
IGROV1 ovarian
  TGI: 34.3 µM
SK-MEL-5 melanoma
  TGI: 30.7 µM
HOP-62 NSCLC
  TGI: 79.1 µM

## CCOC(=O)c1nc2cc(F)c(F)cc2nc1NCc1cc(OC)c(OC)c(OC)c1
EKVX NSCLC
  TGI: > 100 µM
SK-OV-3 ovarian
  TGI: > 100 µM
LOX IMVI melanoma
  TGI: > 100 µM
HCT-116 colon
  TGI: > 100 µM
NCI-H522 lung
  TGI: > 100 µM
M14 melanoma
  TGI: > 100 µM
T-47D breast
  TGI: > 100 µM
TK-10 renal
  TGI: > 100 µM
A549 NSCLC
  TGI: > 100 µM
MDA-N
  TGI: > 100 µM
CAKI-1 renal
  TGI: > 100 µM
OVCAR-4 ovarian
  TGI: > 100 µM
SK-MEL-28 melanoma
  TGI: > 100 µM
RXF 393 renal
  TGI: > 100 µM
UACC-62 melanoma
  TGI: > 100 µM
MALME-3M melanoma
  TGI: > 100 µM
HT29 colon
  TGI: > 100 µM
SR leukemia
  TGI: > 100 µM
SF-268 CNS
  TGI: > 100 µM
HCT-15 colon
  TGI: > 100 µM
OVCAR-5 ovarian
  TGI: > 100 µM
COLO 205 colon
  TGI: > 100 µM
OVCAR-3 ovarian
  TGI: > 100 µM
SNB-19 CNS
  TGI: > 100 µM
BT-549 breast
  TGI: > 100 µM
ACHN renal
  TGI: > 100 µM
UACC-257 melanoma
  TGI: > 100 µM
PC-3 prostate
  TGI: > 100 µM
HL-60(TB) leukemia
  TGI: > 100 µM
SF-539 CNS
  TGI: > 100 µM
NCI/ADR-RES ovarian
  TGI: > 100 µM
SK-MEL-2 melanoma
  TGI: > 100 µM
U251 CNS
  TGI: > 100 µM
MDA-MB-435
  TGI: > 100 µM
786-0 renal
  TGI: > 100 µM
NCI-H23 lung
  TGI: > 100 µM
KM12 colon
  TGI: > 100 µM
UO-31 renal
  TGI: > 100 µM
SF-295 CNS
  TGI: > 100 µM
SW-620 colon
  TGI: > 100 µM
A498 renal
  TGI: > 100 µM
HS 578T breast
  TGI: > 100 µM
OVCAR-8 ovarian
  TGI: > 100 µM
MCF7 breast
  TGI: > 100 µM
NCI-H460 lung
  TGI: > 100 µM
HOP-92 NSCLC
  TGI: > 100 µM
MOLT-4 leukemia
  TGI: > 100 µM
SNB-75 CNS
  TGI: > 100 µM
SN12C renal
  TGI: > 100 µM
CCRF-CEM leukemia
  TGI: > 100 µM
DU-145 prostate
  TGI: > 100 µM
IGROV1 ovarian
  TGI: > 100 µM
SK-MEL-5 melanoma
  TGI: > 100 µM
HOP-62 NSCLC
  TGI: > 100 µM
